Experimental data reported in publication PMC11347070 (Current Research in Toxicology, 2024).

Legend:
[1] = test system: zebrafish embryos and larvae; assay: Zebrafish embryo developmental toxicity assay; conditions: for BA heart / Coagulation/dead / Curved fin left / Curved fin right / Curved tail / Edema head / Edema pericard / Edema yolk / No hatching / Tissue deviation tail / Tot. malformed (excl. dead) / Tot. malformed (incl. dead) / Deviation eye / Elbow tail: 120 hpf
[2] = test system: zebrafish embryos and larvae; conditions: exposed to 500 µM ECA; 120 hpf
[3] = ref FDA, KEPPRA® (levetiracetam), n.d.; cited from earlier work

For `CCC(C(=O)O)N1CCCC1=O` (stereo not drawn) [ECA, etiracetam carboxylic acid], the BA heart ([1]; ECA 1 µM, replicate 1) was 0/20, the Coagulation/dead ([1]; ECA 1 µM, replicate 1) was 0/20 and the Curved fin left ([1]; ECA 1 µM, replicate 1) was 0/20. The Curved fin right ([1]; ECA 1 µM, replicate 1) was 0/20, the Curved tail ([1]; ECA 1 µM, replicate 1) was 0/20 and the Edema head ([1]; ECA 1 µM, replicate 1) was 0/20. The Edema pericard ([1]; ECA 1 µM, replicate 1) was 0/20, the Edema yolk ([1]; ECA 1 µM, replicate 1) was 0/20 and the No hatching ([1]; ECA 1 µM, replicate 1) was 0/20. For the same compound, the Tissue deviation tail ([1]; ECA 1 µM, replicate 1) was 0/20, the “Tot. malformed (excl. dead)” value ([1]; ECA 1 µM, replicate 1) was 0/20 and the “Tot. malformed (incl. dead)” value ([1]; ECA 1 µM, replicate 1) was 0/20. The BA heart ([1]; ECA 1 µM, replicate 2) was 0/19, the Coagulation/dead ([1]; ECA 1 µM, replicate 2) was 1/20 and the Curved fin left ([1]; ECA 1 µM, replicate 2) was 0/19. For the same compound, the Curved fin right ([1]; ECA 1 µM, replicate 2) was 0/19, the Curved tail ([1]; ECA 1 µM, replicate 2) was 0/19 and the Edema head ([1]; ECA 1 µM, replicate 2) was 0/19. The Edema pericard ([1]; ECA 1 µM, replicate 2) was 0/19, the Edema yolk ([1]; ECA 1 µM, replicate 2) was 0/19 and the No hatching ([1]; ECA 1 µM, replicate 2) was 0/19. The Tissue deviation tail ([1]; ECA 1 µM, replicate 2) was 0/19, the “Tot. malformed (excl. dead)” value ([1]; ECA 1 µM, replicate 2) was 0/19 and the “Tot. malformed (incl. dead)” value ([1]; ECA 1 µM, replicate 2) was 1/20. For the same compound, the BA heart ([1]; ECA 10 µM, replicate 1) was 0/18, the Coagulation/dead ([1]; ECA 10 µM, replicate 1) was 2/20 and the Curved fin left ([1]; ECA 10 µM, replicate 1) was 0/18. The Curved fin right ([1]; ECA 10 µM, replicate 1) was 0/18, the Curved tail ([1]; ECA 10 µM, replicate 1) was 2/18 and the Edema head ([1]; ECA 10 µM, replicate 1) was 0/18. The Edema pericard ([1]; ECA 10 µM, replicate 1) was 0/18, the Edema yolk ([1]; ECA 10 µM, replicate 1) was 0/18 and the No hatching ([1]; ECA 10 µM, replicate 1) was 1/18. The Tissue deviation tail ([1]; ECA 10 µM, replicate 1) was 0/18, the “Tot. malformed (excl. dead)” value ([1]; ECA 10 µM, replicate 1) was 2/18 and the “Tot. malformed (incl. dead)” value ([1]; ECA 10 µM, replicate 1) was 4/20. For the same compound, the BA heart ([1]; ECA 10 µM, replicate 2) was 0/20, the Coagulation/dead ([1]; ECA 10 µM, replicate 2) was 0/20 and the Curved fin left ([1]; ECA 10 µM, replicate 2) was 0/20. For the same compound, the Curved fin right ([1]; ECA 10 µM, replicate 2) was 0/20, the Curved tail ([1]; ECA 10 µM, replicate 2) was 1/20 and the Edema head ([1]; ECA 10 µM, replicate 2) was 0/20. For the same compound, the Edema pericard ([1]; ECA 10 µM, replicate 2) was 0/20, the Edema yolk ([1]; ECA 10 µM, replicate 2) was 0/20 and the No hatching ([1]; ECA 10 µM, replicate 2) was 0/20. For the same compound, the Tissue deviation tail ([1]; ECA 10 µM, replicate 2) was 0/20, the “Tot. malformed (excl. dead)” value ([1]; ECA 10 µM, replicate 2) was 1/20 and the “Tot. malformed (incl. dead)” value ([1]; ECA 10 µM, replicate 2) was 1/20. For the same compound, the BA heart ([1]; ECA 100 µM, replicate 1) was 0/18, the Coagulation/dead ([1]; ECA 100 µM, replicate 1) was 2/20 and the Curved fin left ([1]; ECA 100 µM, replicate 1) was 0/18. The Curved fin right ([1]; ECA 100 µM, replicate 1) was 0/18, the Curved tail ([1]; ECA 100 µM, replicate 1) was 0/18 and the Edema head ([1]; ECA 100 µM, replicate 1) was 0/18. The Edema pericard ([1]; ECA 100 µM, replicate 1) was 1/18, the Edema yolk ([1]; ECA 100 µM, replicate 1) was 0/18 and the No hatching ([1]; ECA 100 µM, replicate 1) was 0/18. For the same compound, the Tissue deviation tail ([1]; ECA 100 µM, replicate 1) was 1/18, the “Tot. malformed (excl. dead)” value ([1]; ECA 100 µM, replicate 1) was 1/18 and the “Tot. malformed (incl. dead)” value ([1]; ECA 100 µM, replicate 1) was 3/20. For the same compound, the BA heart ([1]; ECA 100 µM, replicate 2) was 1/20, the Coagulation/dead ([1]; ECA 100 µM, replicate 2) was 0/20 and the Curved fin left ([1]; ECA 100 µM, replicate 2) was 1/20. The Curved fin right ([1]; ECA 100 µM, replicate 2) was 1/20, the Curved tail ([1]; ECA 100 µM, replicate 2) was 1/20 and the Edema head ([1]; ECA 100 µM, replicate 2) was 1/20. The Edema pericard ([1]; ECA 100 µM, replicate 2) was 2/20, the Edema yolk ([1]; ECA 100 µM, replicate 2) was 1/20 and the No hatching ([1]; ECA 100 µM, replicate 2) was 0/20. For the same compound, the Tissue deviation tail ([1]; ECA 100 µM, replicate 2) was 1/20, the “Tot. malformed (excl. dead)” value ([1]; ECA 100 µM, replicate 2) was 2/20 and the “Tot. malformed (incl. dead)” value ([1]; ECA 100 µM, replicate 2) was 2/20. The Coagulation/dead ([1]; ECA 250 µM, replicate 1) was 0/20, the Curved tail ([1]; ECA 250 µM, replicate 1) was 0/20 and the Deviation eye ([1]; ECA 250 µM, replicate 1) was 0/20. For the same compound, the Elbow tail ([1]; ECA 250 µM, replicate 1) was 1/20, the Tissue deviation tail ([1]; ECA 250 µM, replicate 1) was 1/20 and the “Tot. malformed (excl. dead)” value ([1]; ECA 250 µM, replicate 1) was 2/20. The “Tot. malformed (incl. dead)” value ([1]; ECA 250 µM, replicate 1) was 2/20, the Coagulation/dead ([1]; ECA 250 µM, replicate 2) was 0/20 and the Curved tail ([1]; ECA 250 µM, replicate 2) was 0/20. The Deviation eye ([1]; ECA 250 µM, replicate 2) was 0/20, the Elbow tail ([1]; ECA 250 µM, replicate 2) was 0/20 and the Tissue deviation tail ([1]; ECA 250 µM, replicate 2) was 0/20. The “Tot. malformed (excl. dead)” value ([1]; ECA 250 µM, replicate 2) was 0/20, the “Tot. malformed (incl. dead)” value ([1]; ECA 250 µM, replicate 2) was 0/20 and the Coagulation/dead ([1]; ECA 500 µM, replicate 1) was 0/20. The Curved tail ([1]; ECA 500 µM, replicate 1) was 1/20, the Deviation eye ([1]; ECA 500 µM, replicate 1) was 1/20 and the Elbow tail ([1]; ECA 500 µM, replicate 1) was 0/20. For the same compound, the Tissue deviation tail ([1]; ECA 500 µM, replicate 1) was 1/20, the “Tot. malformed (excl. dead)” value ([1]; ECA 500 µM, replicate 1) was 2/20 and the “Tot. malformed (incl. dead)” value ([1]; ECA 500 µM, replicate 1) was 2/20. The Coagulation/dead ([1]; ECA 500 µM, replicate 2) was 0/20, the Curved tail ([1]; ECA 500 µM, replicate 2) was 0/20 and the Deviation eye ([1]; ECA 500 µM, replicate 2) was 0/20. The Elbow tail ([1]; ECA 500 µM, replicate 2) was 0/20, the Tissue deviation tail ([1]; ECA 500 µM, replicate 2) was 1/20 and the “Tot. malformed (excl. dead)” value ([1]; ECA 500 µM, replicate 2) was 1/20. The “Tot. malformed (incl. dead)” value ([1]; ECA 500 µM, replicate 2) was 1/20, the “differences between test groups and embryo medium control group” value ([1]; all test concentrations, 24 to 120 hpf, Fisher Exact test) was “no statistically significant differences” and the “teratogenicity in zebrafish larvae” value ([1]; concentrations up to 10,000 µM LTC and 500 µM ECA, likely due to limited uptake or lack of uptake) was “non-teratogenic”. For the same compound, the “concentration of ECA in larvae” value [2] was “no concentrations above the LOD could be detected”, the “uptake of ECA” value [2] was “no uptake of ECA could be observed” and the “human metabolite of LTC, share of the administered dose” value [3] was 24 % of the administered dose.
